As a reminder, the remaining activity is the signal under treatment as a percentage of the control signal.

Like-named read-outs stand apart in the source and are kept apart here.

Type in all cases: biochemical
One assay concerns the target PAK4 (Homo sapiens, UniProt O96013). Put plainly: Kinase screen: PAK4 assay. The method, then: (§1) Generally, the same procedure was used for all assays. Since the total assay volume was 25.5 microliters, 0.5 microliters of inhibitors at 51× assay concentration were added to the plates before any other addition.
(§2) The basic procedure was to add 0.5 microliters inhibitor/control in DMSO to plate. Fifteen microliters of enzyme/substrate/buffer mix were added and incubated for 5 min. Ten microliters MgATP at the relevant concentration were added and incubated for 30 min. The assay was stopped by adding 5 microliters of 3% orthophosphoric acid. The assay was transferred to a p81 filter plate and read in a scintillation counter of 30 sec/well. Note that this assay procedure was not followed for MKK1, which instead involved a two-step assay, and PKC alpha, which required the addition of lipid vesicles.
PAK4 assay: PAK4 (5-20 mU diluted in 50 mM Tris pH 7.5, 0.1 mM EGTA, 0.1% b-mercaptoethanol, 1 mg/ml BSA) was assayed against a substrate peptide ([…]) (SEQ ID NO: 30) in a final volume of 25.5 μl containing 50 mM Tris pH 7.5, 0.05% b-mercaptoethanol, 300 μM substrate peptide, 10 mM magnesium acetate and 0.005 mM [33P-g-ATP] (50-1000 cpm/pmole) and incubated for 30 min at room temperature. Assays were stopped by addition of 5 μl of 0.5 M (3%) orthophosphoric acid and then harvested onto P81 Unifilter plates with a wash buffer of 50 mM orthophosphoric acid.

A further assay has as its target MARK3 (Homo sapiens, UniProt P27448). Put plainly: Kinase screen: MARK3 assay. As for the experimental part: as §1, §2
MARK3 assay: MARK3 (5-20 mU diluted in 50 mM Tris pH 7.5, 0.1 mM EGTA, 0.1% b-mercaptoethanol, 1 mg/ml BSA) was assayed against CHKtide substrate ([…]) (SEQ ID NO: 12) in a final volume of 25.5 μl containing 50 mM Tris pH 7.5, 0.05% b-mercaptoethanol, 300 μM substrate peptide, 10 mM magnesium acetate and 0.005 mM [33P-g-ATP] (50-1000 cpm/pmole) and incubated for 30 min at room temperature. Assays were stopped by addition of 5 μl of 0.5 M (3%) orthophosphoric acid and then harvested onto P81 Unifilter plates with a wash buffer of 50 mM orthophosphoric acid.

A further assay addresses SmMLCK (Homo sapiens, UniProt Q15746). Put plainly: Kinase screen: smMLCK assay. The method, then: as §1, §2
(500-1000 cpm/pmole) and incubated for 30 mins at room temperature. Assays were stopped by addition of 5 μl of 0.5M (3%) orthophosphoric acid. Assays were harvested onto P81 Unifilter plates using a wash buffer of 50 mM orthophosphoric acid.

The next assay deals with ROCK 2 (Homo sapiens, UniProt O75116). Put plainly: Kinase screen: ROCK-II (ROKa) assay. As for the experimental part: as §1, §2
ROCK-II (ROKa) assay: ROCK-II (ROKa) (5-20 mU diluted in 50 mM Tris pH 7.5, 0.1 mM EGTA, 0.1% b-mercaptoethanol, 1 mg/ml BSA) was assayed against Long S6 substrate peptide ([…]) (SEQ ID NO: 10) in a final volume of 25.5 μl containing 50 mM Tris pH 7.5, 0.1 mM EGTA, 30 μM Long S6 substrate peptide, 10 mM magnesium acetate and 0.02 mM [33P-g-ATP] (50-1000 cpm/pmole) and incubated for 30 min at room temperature. Assays were stopped by addition of 5 μl of 0.5 M (3%) orthophosphoric acid and then harvested onto P81 Unifilter plates with a wash buffer of 50 mM orthophosphoric acid.

The next assay addresses T1, TBK1 (Homo sapiens, UniProt Q9UHD2).
T1 construct: DU12569
T1 sequence (Q9UHD2 1-729): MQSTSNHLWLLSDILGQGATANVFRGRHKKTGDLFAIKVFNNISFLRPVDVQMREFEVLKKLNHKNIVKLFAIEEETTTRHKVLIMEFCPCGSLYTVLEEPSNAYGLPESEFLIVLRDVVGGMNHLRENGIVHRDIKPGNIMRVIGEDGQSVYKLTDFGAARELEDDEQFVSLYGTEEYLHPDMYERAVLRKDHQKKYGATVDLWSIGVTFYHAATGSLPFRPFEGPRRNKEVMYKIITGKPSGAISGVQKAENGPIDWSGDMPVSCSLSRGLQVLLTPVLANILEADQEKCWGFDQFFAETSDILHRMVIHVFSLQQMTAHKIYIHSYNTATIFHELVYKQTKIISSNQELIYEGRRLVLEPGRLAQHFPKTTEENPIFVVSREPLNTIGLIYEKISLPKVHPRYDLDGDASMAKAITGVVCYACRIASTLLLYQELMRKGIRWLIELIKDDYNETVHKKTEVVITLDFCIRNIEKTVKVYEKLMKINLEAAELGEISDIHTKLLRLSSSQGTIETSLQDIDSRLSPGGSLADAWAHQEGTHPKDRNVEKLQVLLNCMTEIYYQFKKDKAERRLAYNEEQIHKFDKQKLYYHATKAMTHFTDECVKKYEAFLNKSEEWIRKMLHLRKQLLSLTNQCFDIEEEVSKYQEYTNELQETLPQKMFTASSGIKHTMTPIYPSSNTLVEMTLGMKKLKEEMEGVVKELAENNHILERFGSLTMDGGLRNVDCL
As to the kind of experiment: Kinase screen: TBK1 / TBK1 (DU12569) assay. Conditions: 10 micromolar compound; for remaining activity at 10 µM: read-out: mean activity remaining (as a percentage of the original activity), TBK1. The method, then: as §1, §2
TBK1 assay: TBK1 (5-20 mU diluted in 50 mM Tris pH 7.5, 0.1 mM EGTA, 1 mg/ml BSA) was assayed against a substrate peptide ([…]) (SEQ ID NO: 31) in a final volume of 25.5 μl containing 50 mM Tris pH 7.5, 300 μM substrate peptide, 10 mM magnesium acetate and 0.05 mM [33P-g-ATP] (50-1000 cpm/pmole) and incubated for 30 min at room temperature. Assays were stopped by addition of 5 μl of 0.5 M (3%) orthophosphoric acid and then harvested onto P81 Unifilter plates with a wash buffer of 50 mM orthophosphoric acid.
TBK1 (DU12569) assay: TBK1 (DU12569) (5-20 mU diluted in 50 mM Tris pH 7.5, 0.1 mM EGTA, 1 mg/ml BSA) was assayed against a substrate peptide ([…]) (SEQ ID NO: 37) in a final volume of 25.5 μl containing 50 mM Tris pH 7.5, 300 μM substrate peptide, 10 mM magnesium acetate and 0.05 mM [33P-g-ATP] (50-1000 cpm/pmole) and incubated for 30 min at room temperature. Assays were stopped by addition of 5 μl of 0.5 M (3%) orthophosphoric acid and then harvested onto P81 Unifilter plates with a wash buffer of 50 mM orthophosphoric acid.

Where [1] appears, read: 10 micromolar compound, read-out: mean activity remaining (as a percentage of the original activity), PAK4.
[2] abbreviates: 10 micromolar compound, read-out: mean activity remaining (as a percentage of the original activity), MARK 3.
Where [3] appears, read: 10 micromolar compound, read-out: mean activity remaining (as a percentage of the original activity), SmMLCK.
The mark [4] stands for this setting: 10 micromolar compound, read-out: mean activity remaining (as a percentage of the original activity), ROCK 2.

Chain of SmMLCK (Q15746 923-1914): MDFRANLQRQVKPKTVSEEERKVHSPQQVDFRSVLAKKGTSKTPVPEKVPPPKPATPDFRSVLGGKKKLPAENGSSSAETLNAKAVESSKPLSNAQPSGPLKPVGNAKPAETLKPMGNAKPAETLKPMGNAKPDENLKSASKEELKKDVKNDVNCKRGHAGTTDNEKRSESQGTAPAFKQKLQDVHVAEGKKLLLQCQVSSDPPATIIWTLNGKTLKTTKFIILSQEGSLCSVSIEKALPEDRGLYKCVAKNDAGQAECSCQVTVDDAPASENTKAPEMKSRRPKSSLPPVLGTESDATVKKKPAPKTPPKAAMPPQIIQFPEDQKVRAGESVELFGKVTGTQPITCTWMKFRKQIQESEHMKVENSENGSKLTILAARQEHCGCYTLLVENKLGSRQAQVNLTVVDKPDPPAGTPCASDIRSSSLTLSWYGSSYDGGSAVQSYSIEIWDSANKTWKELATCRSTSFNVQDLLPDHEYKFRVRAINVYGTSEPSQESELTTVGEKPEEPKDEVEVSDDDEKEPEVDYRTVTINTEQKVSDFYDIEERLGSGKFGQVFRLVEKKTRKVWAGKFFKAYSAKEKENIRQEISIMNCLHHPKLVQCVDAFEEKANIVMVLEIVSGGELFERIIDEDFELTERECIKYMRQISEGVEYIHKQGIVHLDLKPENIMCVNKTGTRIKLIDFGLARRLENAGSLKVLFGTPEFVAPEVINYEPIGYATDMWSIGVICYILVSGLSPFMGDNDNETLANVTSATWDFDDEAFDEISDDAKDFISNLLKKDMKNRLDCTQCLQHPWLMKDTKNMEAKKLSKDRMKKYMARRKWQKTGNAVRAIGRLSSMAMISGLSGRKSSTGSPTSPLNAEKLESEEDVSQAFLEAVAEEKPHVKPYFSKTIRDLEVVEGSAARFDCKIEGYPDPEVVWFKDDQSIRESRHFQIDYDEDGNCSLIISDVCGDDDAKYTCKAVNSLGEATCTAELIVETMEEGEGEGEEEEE
Chain of MARK3 (P27448 whole entry, species assumed): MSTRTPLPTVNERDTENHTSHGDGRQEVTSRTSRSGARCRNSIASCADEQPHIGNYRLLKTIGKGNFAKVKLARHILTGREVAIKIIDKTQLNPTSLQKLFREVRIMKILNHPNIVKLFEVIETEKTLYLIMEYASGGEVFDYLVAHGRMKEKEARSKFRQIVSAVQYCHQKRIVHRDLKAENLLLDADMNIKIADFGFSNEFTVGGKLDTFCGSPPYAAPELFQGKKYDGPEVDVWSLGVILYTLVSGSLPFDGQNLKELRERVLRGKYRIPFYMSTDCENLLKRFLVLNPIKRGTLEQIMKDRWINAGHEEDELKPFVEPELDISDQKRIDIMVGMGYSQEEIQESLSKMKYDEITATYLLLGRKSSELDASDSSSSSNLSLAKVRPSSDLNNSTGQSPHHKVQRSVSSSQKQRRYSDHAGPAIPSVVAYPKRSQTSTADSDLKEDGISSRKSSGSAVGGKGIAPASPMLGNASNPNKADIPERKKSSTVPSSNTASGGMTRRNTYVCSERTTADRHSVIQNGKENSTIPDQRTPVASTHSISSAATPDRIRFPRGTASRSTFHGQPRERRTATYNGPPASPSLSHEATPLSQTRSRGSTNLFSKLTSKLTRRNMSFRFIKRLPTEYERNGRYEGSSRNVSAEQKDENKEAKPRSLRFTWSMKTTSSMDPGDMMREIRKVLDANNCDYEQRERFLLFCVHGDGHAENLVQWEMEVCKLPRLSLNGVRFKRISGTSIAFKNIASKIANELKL
Chain of PAK4 (O96013 whole entry, species assumed): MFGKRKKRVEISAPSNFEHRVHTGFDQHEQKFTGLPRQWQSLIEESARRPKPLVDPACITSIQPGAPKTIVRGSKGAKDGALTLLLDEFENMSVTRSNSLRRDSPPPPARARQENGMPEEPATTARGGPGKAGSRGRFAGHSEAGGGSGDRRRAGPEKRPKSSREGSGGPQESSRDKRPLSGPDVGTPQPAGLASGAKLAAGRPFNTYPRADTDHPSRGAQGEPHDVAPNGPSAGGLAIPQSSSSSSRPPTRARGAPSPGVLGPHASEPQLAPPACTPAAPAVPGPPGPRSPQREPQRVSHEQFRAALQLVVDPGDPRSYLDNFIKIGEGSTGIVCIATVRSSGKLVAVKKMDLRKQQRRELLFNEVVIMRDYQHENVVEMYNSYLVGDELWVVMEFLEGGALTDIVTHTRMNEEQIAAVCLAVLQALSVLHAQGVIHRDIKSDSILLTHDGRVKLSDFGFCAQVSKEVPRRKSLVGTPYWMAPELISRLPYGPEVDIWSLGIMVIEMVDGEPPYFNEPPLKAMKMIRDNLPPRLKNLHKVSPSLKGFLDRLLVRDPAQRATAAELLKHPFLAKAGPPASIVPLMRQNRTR
Chain of ROCK 2 (O75116 whole entry, species assumed): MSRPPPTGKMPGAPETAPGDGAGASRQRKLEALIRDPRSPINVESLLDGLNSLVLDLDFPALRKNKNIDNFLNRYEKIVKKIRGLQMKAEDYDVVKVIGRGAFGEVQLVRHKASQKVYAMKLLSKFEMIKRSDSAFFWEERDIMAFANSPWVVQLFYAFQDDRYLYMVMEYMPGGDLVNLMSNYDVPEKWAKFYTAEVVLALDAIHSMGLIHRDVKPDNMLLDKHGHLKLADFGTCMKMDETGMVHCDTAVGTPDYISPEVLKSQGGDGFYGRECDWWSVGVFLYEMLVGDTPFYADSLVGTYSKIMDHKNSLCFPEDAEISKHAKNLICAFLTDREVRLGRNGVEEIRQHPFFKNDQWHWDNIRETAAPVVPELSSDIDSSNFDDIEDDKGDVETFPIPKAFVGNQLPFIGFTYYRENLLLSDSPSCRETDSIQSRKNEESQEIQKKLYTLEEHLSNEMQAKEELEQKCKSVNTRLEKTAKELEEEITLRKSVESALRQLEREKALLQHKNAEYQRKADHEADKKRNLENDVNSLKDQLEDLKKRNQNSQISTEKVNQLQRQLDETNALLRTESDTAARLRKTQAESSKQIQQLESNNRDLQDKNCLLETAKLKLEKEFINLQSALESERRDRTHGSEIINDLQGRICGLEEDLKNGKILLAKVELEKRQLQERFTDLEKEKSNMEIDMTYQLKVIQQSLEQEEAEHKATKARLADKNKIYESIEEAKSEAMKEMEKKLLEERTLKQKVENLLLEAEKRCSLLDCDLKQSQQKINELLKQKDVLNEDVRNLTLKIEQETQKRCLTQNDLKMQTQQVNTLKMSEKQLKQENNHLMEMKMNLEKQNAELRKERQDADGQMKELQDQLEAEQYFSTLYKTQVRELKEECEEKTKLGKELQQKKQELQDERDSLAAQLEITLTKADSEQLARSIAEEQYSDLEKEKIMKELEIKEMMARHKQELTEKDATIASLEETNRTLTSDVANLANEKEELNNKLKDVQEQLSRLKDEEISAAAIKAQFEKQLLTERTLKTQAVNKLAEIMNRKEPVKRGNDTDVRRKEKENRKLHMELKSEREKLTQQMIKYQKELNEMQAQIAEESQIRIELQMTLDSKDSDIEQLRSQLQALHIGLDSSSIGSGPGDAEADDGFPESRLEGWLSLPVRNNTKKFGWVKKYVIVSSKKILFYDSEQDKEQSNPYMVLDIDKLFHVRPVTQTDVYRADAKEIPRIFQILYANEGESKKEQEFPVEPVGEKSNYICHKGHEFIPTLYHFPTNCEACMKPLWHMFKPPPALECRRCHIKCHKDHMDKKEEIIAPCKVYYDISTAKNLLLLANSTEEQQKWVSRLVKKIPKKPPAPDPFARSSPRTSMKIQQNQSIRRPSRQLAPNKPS

Regarding `CC(C)c1cnn2c(NCc3ccccc3)cc(NCCCCCCCN)nc12` [BS-181], the remaining activity at 10 µM at PAK4 (PAK4, 10 μM, read-out: Mean Remaining Enzyme Activity (%)) stood at 75%; at MARK3 (MARK3, 10 μM, read-out: Mean Remaining Enzyme Activity (%)) it was 104%; at SmMLCK (SmMLCK, 10 μM, read-out: Mean Remaining Enzyme Activity (%)), 35%; at ROCK 2 (ROCK 2, 10 μM, read-out: Mean Remaining Enzyme Activity (%)) it was 76%.

For the compound `C=C[C@H](CO)Nc1cc(NCc2ccccc2)n2ncc(C(C)C)c2n1` [ICEC0065], the remaining activity at 10 µM at PAK4 (setting [1]) came out at 82%; on MARK3 (setting [2]) it was 93%; on TBK1, 83%; on SmMLCK (setting [3]), 92%; at ROCK 2 (setting [4]), 95%.

Turning to `CC(C)c1cnn2c(NCc3ccccc3)cc(N[C@@H](CO)[C@H](O)CO)nc12` [ICEC0318, (3S)-3-(7-(Benzylamino)-3-isopropylpyrazolo[1,5-a]pyrimidin-5-ylamino)butane-1,2,4-triol], the remaining activity at 10 µM at PAK4 (setting [1]) stood at 55%; on MARK3 (setting [2]) it was 82%; at TBK1 it was 87%; on SmMLCK (setting [3]) it was 101%; on ROCK 2 (setting [4]), 102%.

On to `CC(C)c1cnn2c(NCc3ccccc3F)cc(NCCCCCN)nc12` [ICEC-0232], for which the “mean activity remaining (as a percentage of the original activity), PAK4” value on PAK4 (10 micromolar compound) is 58%. Besides, the “mean activity remaining (as a percentage of the original activity), MARK 3” value on MARK3 (10 micromolar compound) is recorded as 96%. In addition, the “mean activity remaining (as a percentage of the original activity), TBK1” value on TBK1 came out at 91%. For the same compound, the “mean activity remaining (as a percentage of the original activity), SmMLCK” value at SmMLCK (10 micromolar compound) came out at 38%. Besides, the “mean activity remaining (as a percentage of the original activity), ROCK 2” value on ROCK 2 (10 micromolar compound) came out at 86%.

Turning to `CC[C@H](CO)Nc1cc(NCc2ccccc2)n2ncc(C(C)C)c2n1` [ICEC0067], the remaining activity at 10 µM on PAK4 (setting [1]) amounted to 75%; on MARK3 (setting [2]), 89%; on TBK1, 85%; at SmMLCK (setting [3]) it was 81%; on ROCK 2 (setting [4]) it was 85%.

The record behind these values is US8067424B2, “Selective inhibitors for cyclin-dependent kinases” (Emory University, priority 2007, dated 2011).
